Assays:
[1] = target: human cyclin D1-Cdk4 (Homo sapiens, UniProt P11802); experiment: Cdk4 FlashPlate kinase assay (Rb phosphorylation); type: biochemical; details: recombinant cyclin D1-Cdk4, Rb substrate, 1 μM ATP
Method: (§1) To determine inhibition of Cdk4, Cdk2 and Cdk1 activity, kinase assays were conducted using FlashPlate™ assays (NEN™-Life Science Products). FlashPlate assays were performed using recombinant human cyclin B-Cdk1, human cyclin E-Cdk2 or human cyclin D1-Cdk4 complexes. GST-cyclinE (GST-cycE), Cdk2, GST-cyclinB (GST-cycB), Cdk1, GST-Cdk4 and cyclin D1 (cycD1) cDNA clones in baculovirus vectors were provided by Dr. W. Harper at the Baylor College of Medicine, Houston, Tex. Proteins were co-expressed in High Five™ insect cells and the complex was purified on glutathione Sepharose resin (Pharmacia, Piscataway, N.J.) as previously described (Harper, J. W. et al. Cell 1993, 75, 805-816). A 6×-Histidine tagged truncated form of retinoblastoma (Rb) protein (amino acid 386-928) was used as the substrate for the cycD1-Cdk4, cycB-Cdk1 and the cycE-Cdk2 assays (the expression plasmid was provided by Dr. Veronica Sullivan, Department of Molecular Virology, Roche Research Centre, Welwyn Garden City, United Kingdom). The Rb protein is a natural substrate for phosphorylation by Cdk4, Cdk2 and Cdk1 (see Herwig and Strauss Eur. J. Biochem. Vol. 246 (1997) pp. 581-601 and the references cited therein).
(§2) The expression of the 62 Kd protein was under the control of an IPTG inducible promoter in an M15 E. coli strain. Cells were lysed by sonication and purification was carried out by binding lysates at pH 8.0 to a Ni-chelated agarose column pretreated with 1 mM imidazole. The resin was then washed several times with incrementally decreasing pH buffers to pH 6.0, and eluted with 500 mM imidazole. Eluted protein was dialysed against 20 mM HEPES pH 7.5, 30% glycerol, 200 mM NaCl, and 1 mM DTT. Purified Rb fusion protein stocks were quantitated for protein concentration, aliquoted, and stored at −70° C.
(§3) For all three kinase assays reported herein, 96-well FlashPlates were coated with Rb protein at 10 μg/ml, using 100 μl per well. Plates were incubated at 4° C. overnight or at room temperature for 3 hours on a shaker. To control for nonspecific phosphorylation, one row of wells was coated with 100 μl/well coating buffer (20 mM HEPES, 0.2 M NaCl). Plates were then washed twice with wash buffer (0.01% Tween 20 in phosphate-buffered saline). Compounds to be tested (“test compounds”) were added to the wells at 5× final concentration. Reactions were initiated by immediate addition of 40 μl reaction mix (25 mM HEPES, 20 mM MgCl2, 0.002% Tween 20, 2 mM DTT, 1 μM ATP, 4 nM 33P-ATP) and a sufficient amount of enzyme to give counts that were at least 10-fold above background. Plates were incubated at room temperature on a shaker for 30 minutes. Plates were washed four times with the wash buffer, sealed, and counted on the TopCount scintillation counter (Packard Instrument Co., Downers Grove, Ill.]. The percent inhibition of Rb phosphorylation, which is a measure of the inhibition of Cdk activity, was determined according to the following formula: […]
(§4) where “test compound” refers to the average counts per minute of the test duplicates, “nonspecific” refers to the average counts per minute when no CyclinD/Cdk4, etc., was added, and “total” refers to the average counts per minute when no compound was added. The IC50 value is the concentration of test compound that reduces by 50% the protein-kinase induced incorporation of the radiolabel under the test conditions described.

[2] = tested on: HCT116, a colorectal carcinoma cell line; experiment: Tetrazolium dye (MTT) proliferation assay; type: cell-based; details: Homo sapiens, HCT-116; HCT116 cells
Method: Proliferation was evaluated by the tetrazolium dye assay according to the procedure of Denizot and Lang (Denizot, F. and Lang, R. J Immunol Methods 1986, 89, 271-277). The cell line used was HCT116, a colorectal carcinoma cell line obtained from the American Type Cell Culture Collection (ATCC; Rockville, Md.). The cells were grown in McCoy's 5A medium supplemented with 10% FCS and L-glutamine.
Cells were plated at the appropriate seeding density to give logarithmic growth over the course of the assay in a 96-well tissue culture plate. Plates were incubated overnight at 37° C. in a humidified incubator with 5% CO2. The next day, test compounds were serially diluted to four times the final concentration in the appropriate medium containing 1.2% DMSO. One-fourth final volume of each dilution was added in duplicate to the plates containing cells. The same volume of 1.2% DMSO in medium was added to a row of “control wells” such that the final concentration of DMSO in each well was 0.3%. Wells to which no cells were added served as the “blank.” Wells to which no inhibitor was added served as “no inhibitor control.” The plates were) returned to the incubator, and at set time points (determined by their growth curves) plates were analyzed as described below.
3-(4,5-dimethylthiazole-2-yl)-2,5-diphenyl-2H-tetrazolium bromide (thiazolyl blue; MTT; Sigma) was added to each well to yield a final concentration of 1 mg/ml. Plates were returned to the incubator for 2.5-3 hours at 37° C. The MTT-containing medium was removed and the resulting formazan metabolite was solubilized in 100% ethanol with shaking for 15 minutes at room temperature. Absorbance readings were taken in a microtiter plate reader (Dynatech and Molecular Devices plate readers were used interchangeably) at a wavelength of 570 nm with a 650 nm reference. Percent inhibition (% INH) is calculated by subtracting the absorbance of the blank well from all wells, then subtracting the ratio of the average absorbance of each test duplicate (SAVE) by the average of the controls (CAVE) from 1.00. The final number is then multiplied by 100 (% INH=(1.00−SAVE/CAVE)×100). The concentration at which 50% inhibition of cell proliferation is obtained (the IC50) is determined from the linear regression of a plot of the logarithm of the concentration versus percent inhibition.

[3] = target: human cyclin E-Cdk2 (Homo sapiens, UniProt P24941); experiment: Cdk2 FlashPlate kinase assay (Rb phosphorylation); type: biochemical; details: recombinant cyclin E-Cdk2, Rb substrate, 1 μM ATP
Method: as §1, §2, §3, §4

[4] = target: human cyclin B-Cdk1 (Homo sapiens, UniProt P06493); experiment: Cdk1 FlashPlate kinase assay (Rb phosphorylation); type: biochemical; details: recombinant cyclin B-Cdk1, Rb substrate, 1 μM ATP
human cyclin B-Cdk1, sequence (P06493 whole entry): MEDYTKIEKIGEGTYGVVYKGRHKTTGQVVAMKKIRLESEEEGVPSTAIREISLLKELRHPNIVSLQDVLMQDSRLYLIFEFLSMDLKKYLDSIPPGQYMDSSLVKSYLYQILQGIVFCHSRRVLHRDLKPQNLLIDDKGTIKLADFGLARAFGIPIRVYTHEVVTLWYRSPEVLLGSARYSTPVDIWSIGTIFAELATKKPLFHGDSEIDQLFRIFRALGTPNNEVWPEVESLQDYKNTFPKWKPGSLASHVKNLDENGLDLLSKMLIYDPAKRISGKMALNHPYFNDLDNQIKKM
human cyclin B-Cdk1, sequence (P14635 whole entry partner): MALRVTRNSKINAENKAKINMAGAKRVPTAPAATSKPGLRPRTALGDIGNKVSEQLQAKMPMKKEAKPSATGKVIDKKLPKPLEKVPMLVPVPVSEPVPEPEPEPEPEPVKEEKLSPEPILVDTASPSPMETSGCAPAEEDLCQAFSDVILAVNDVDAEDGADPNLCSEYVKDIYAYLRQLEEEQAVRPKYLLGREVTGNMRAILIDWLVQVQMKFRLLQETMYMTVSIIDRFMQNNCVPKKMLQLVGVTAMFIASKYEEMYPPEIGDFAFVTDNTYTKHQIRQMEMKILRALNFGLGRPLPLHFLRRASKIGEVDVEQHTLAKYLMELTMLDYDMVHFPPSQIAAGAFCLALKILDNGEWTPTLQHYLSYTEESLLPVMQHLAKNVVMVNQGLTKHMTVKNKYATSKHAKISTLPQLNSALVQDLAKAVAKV
Method: as §1, §2, §3, §4

human cyclin D1-Cdk4, sequence (P11802 whole entry): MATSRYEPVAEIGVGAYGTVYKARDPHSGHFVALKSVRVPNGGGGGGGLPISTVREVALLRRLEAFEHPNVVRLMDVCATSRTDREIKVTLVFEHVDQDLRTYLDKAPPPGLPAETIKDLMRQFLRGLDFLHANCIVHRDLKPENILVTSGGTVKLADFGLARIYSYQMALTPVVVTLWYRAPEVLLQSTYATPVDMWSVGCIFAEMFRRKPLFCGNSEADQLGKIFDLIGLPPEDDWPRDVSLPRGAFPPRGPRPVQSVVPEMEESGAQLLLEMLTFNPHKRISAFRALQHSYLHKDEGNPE
human cyclin D1-Cdk4, sequence (P24385 whole entry partner): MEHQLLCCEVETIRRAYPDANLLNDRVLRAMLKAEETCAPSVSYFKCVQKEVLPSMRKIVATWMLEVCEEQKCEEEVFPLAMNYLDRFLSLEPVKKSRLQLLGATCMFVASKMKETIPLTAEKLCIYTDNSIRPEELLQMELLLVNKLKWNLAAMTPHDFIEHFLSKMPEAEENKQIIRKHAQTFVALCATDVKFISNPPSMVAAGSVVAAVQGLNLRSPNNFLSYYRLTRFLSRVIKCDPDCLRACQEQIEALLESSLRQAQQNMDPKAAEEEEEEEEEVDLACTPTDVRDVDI

SMILES	IC50 [1]	IC50 [2]	IC50 [3]	IC50 [4]
COc1ccc(F)c(F)c1-c1n[nH]c2nc(NC3CCN(S(C)(=O)=O)CC3)ncc12 [Example 16, [3-(2,3-Difluoro-6-methoxy-phenyl)-1H-pyrazolo[3,4-d]pyrimidin-6-yl]-(1-methanesulfonyl-piperidin-4-yl)-amine]	41 nM	4500 nM	244 nM	–
CS(=O)(=O)N1CCC(Nc2ncc3cn[nH]c3n2)CC1 [Example 19]	–	9160 nM	33 nM	231 nM
Cc1n[nH]c2nc(NC3CCN(C)CC3)ncc12 [Example 23]	–	–	278 nM	1460 nM
COc1ccc(F)cc1-c1n[nH]c2nc(NC3CCN(S(C)(=O)=O)CC3)ncc12 [Example 25, [3-(5-Fluoro-2-methoxy-phenyl)-1H-pyrazolo[3,4-d]pyrimidin-6-yl]-(1-methanesulfonyl-piperidin-4-yl)-amine]	42 nM	–	77 nM	–
COc1ccc(F)cc1-c1n[nH]c2nc(N[C@H]3CCN(S(C)(=O)=O)C[C@@H]3O)ncc12 [Example 27]	4 nM	1700 nM	275 nM	–
COc1ccccc1-c1n[nH]c2nc(NC3CCN(S(C)(=O)=O)CC3)ncc12 [Example 28]	14 nM	1200 nM	18 nM	107 nM
CS(=O)(=O)N1CCC(Nc2ncc3c(-c4c(F)cccc4F)n[nH]c3n2)CC1 [Example 29, [3-(2,6-Difluoro-phenyl)-1H-pyrazolo[3,4-d]pyrimidin-6-yl]-(1-methanesulfonyl-piperidin-4-yl)-amine]	–	32000 nM	278 nM	867 nM
CS(=O)(=O)N1CCC(Nc2ncc3c(-c4ccccc4)n[nH]c3n2)CC1 [Example 30, (1-Methanesulfonyl-piperidin-4-yl)-(3-phenyl-1H-pyrazolo[3,4-d]pyrimidin-6-yl)-amine]	128 nM	3930 nM	179 nM	262 nM
CS(=O)(=O)N1CCC(Nc2ncc3c(-c4cccc(F)c4)n[nH]c3n2)CC1 [Example 31, [3-(3-Fluoro-phenyl)-1H-pyrazolo[3,4-d]pyrimidin-6-yl]-(1-methanesulfonyl-piperidin-4-yl)-amine]	18.5 nM	30000 nM	230 nM	1140 nM

Continued, values first:

IC50 [1]	IC50 [2]	IC50 [3]	IC50 [4]	SMILES
36 nM	–	9 nM	–	COc1ccccc1-c1n[nH]c2nc(Nc3ccc(S(N)(=O)=O)cc3)ncc12 [Example 32, 4-[3-(2-Methoxy-phenyl)-1H-pyrazolo[3,4-d]pyrimidin-6-ylamino]-benzenesulfonamide; compound with trifluoro-acetic acid]
2500 nM	–	2500 nM	–	Fc1ccc(Nc2ncc3c(-c4c(F)cccc4F)n[nH]c3n2)cc1 [Example 33, [3-(2,6-Difluoro-phenyl)-1H-pyrazolo[3,4-d]pyrimidin-6-yl]-(4-fluoro-phenyl)-amine]
344 nM	–	594 nM	–	COc1ccccc1-c1n[nH]c2nc(NCCO)ncc12 [Example 34, 2-[3-(2-Methoxy-phenyl)-1H-pyrazolo[3,4-d]pyrimidin-6-ylamino]-ethanol]
1120 nM	–	1850 nM	–	COc1ccccc1-c1n[nH]c2nc(NCCCCCN)ncc12 [Example 35, [3-(2-Methoxy-phenyl)-1H-pyrazolo[3,4-d]pyrimidin-6-yl]-pentane-1,5-diamine; compound with trifluoro-acetic acid]
–	–	278 nM	–	COc1ccccc1-c1n[nH]c2nc(NCCCN(C)C)ncc12 [Example 36, N′-[3-(2-Methoxy-phenyl)-1H-pyrazolo[3,4-d]pyrimidin-6-yl]-N,N-dimethyl-propane-1,3-diamine]
–	–	278 nM	–	COc1ccccc1-c1n[nH]c2nc(NCCCCCN(C)C)ncc12 [Example 37, N-[3-(2-Methoxy-phenyl)-1H-pyrazolo[3,4-d]pyrimidin-6-yl]-N,N-dimethyl-pentane-1,5-diamine; compound with trifluoro-acetic acid]
–	–	278 nM	–	COc1ccccc1-c1n[nH]c2nc(Nc3ccccc3)ncc12 [Example 38, [3-(2-Methoxy-phenyl)-1H-pyrazolo[3,4-d]pyrimidin-6-yl]-phenyl-amine]
–	–	278 nM	–	COc1ccc(Nc2ncc3c(-c4ccccc4OC)n[nH]c3n2)cc1 [Example 39, (4-Methoxy-phenyl)-[3-(2-methoxy-phenyl)-1H-pyrazolo[3,4-d]pyrimidin-6-y]-amine; compound with trifluoro-acetic acid]
–	–	278 nM	–	COc1ccccc1Nc1ncc2c(-c3c(F)cccc3F)n[nH]c2n1 [Example 40, [3-(2,6-Difluoro-phenyl)-1H-pyrazolo[3,4-d]pyrimidin-6-yl]-(2-methoxy-phenyl)-amine; compound with trifluoro-acetic acid]
–	–	24 nM	–	Cc1n[nH]c2nc(Nc3ccc(S(N)(=O)=O)cc3)ncc12 [Example 41, 4-(3-Methyl-1H-pyrazolo[3,4-d]pyrimidin-6-ylamino)-benzenesulfonamide; compound with trifluoro-acetic acid]
–	–	278 nM	–	Cc1n[nH]c2nc(NCCO)ncc12 [Example 42, 2-(3-Methyl-1H-pyrazolo[3,4-d]pyrimidin-6-ylamino)-ethanol; compound with trifluoro-acetic acid]
–	–	278 nM	–	CCOC(=O)N1CCC(Nc2ncc3c(-c4cccc(F)c4)n[nH]c3n2)CC1 [Example 43, 4-[3-(3-Fluoro-phenyl)-1H-pyrazolo[3,4-d]pyrimidin-6-ylamino]-piperidine-1-carboxylic acid ethyl ester; compound with trifluoro-acetic acid]

— patent publication US7405220B2, “Pyrazolopyrimidines” (Hoffmann-La Roche Inc., priority 2004, dated 2008)
